Measurements reported in patent US20150274834A1, “COMBINATION THERAPY OF AN AFUCOSYLATED CD20 ANTIBODY WITH FLUDARABINE AND/OR MITOXANTRONE” (Roche Glycart AG, priority 2009, published 2015).

Assays:
[1] = tested on: NHL cell lines (Granta-519, HBL-2, Jeko-1, Rec-1, Z-138, Karpas-422); test: Trypan blue exclusion viability/proliferation test, NHL cell line panel; assay type: cell-based; details: chemotherapeutic alone (Fludarabine 0.25 μg/ml; Mitoxantrone 0.25 and 0.5 μg/ml), across cell lines
Excerpt: The following Non-Hodgkin Lymphoma (NHL) cell lines were used in the experiments: Granta-519, HBL-2, Rec-1 and Z-138 as Mantle Cell Lymphoma cell lines and a Karpas-422 as a Diffuse Large B-Cell Lymphoma cell line. All cell lines were obtained from the “Deutsche Sammlung von Mikroorganismen and Zellkulturen GmbH” (DSMZ), Braunschweig, Germany. […] Granta 519, HBL-2, JeKo-1, Rec-1 and Z-138 were cultivated in RPMI-1640 medium with 10% heat-inactivated FCS and 1% Penicillin/Streptomycin. The density of viable cells was determined with BeckmanCoulter ViCell™ Cell Viability Analyzer on the basis of the trypan blue cell exclusion method. The test is based on the principle that viable cells have an intact cell membrane that blocks the uptake of trypan blue whereas dead cells have lost this ability. Therefore viable cells have a transparent cytoplasm whereas dead cells can be identified due to their blue cytoplasm. […] Trypan-blue exclusion tests were used to analyze cell viability. […] These concentrations were determined in pre-experiments on MCL cells • 1. 0.25 μg/ml Fludarabine • 2. 0.25 and 0.5 μg/ml Mitoxantrone 1 ml samples were taken at 0 h, 24 h, 48 h, 72 h every day and the number of viable cells was determined. […] Experiments were independently performed three times.

Rec-1 MCL cells = test: Trypan blue exclusion viability/proliferation test, Rec-1; assay type: cell-based; details: mono-exposure 1 μg/ml
Procedure: (§1) The following Non-Hodgkin Lymphoma (NHL) cell lines were used in the experiments: Granta-519, HBL-2, Rec-1 and Z-138 as Mantle Cell Lymphoma cell lines and a Karpas-422 as a Diffuse Large B-Cell Lymphoma cell line. All cell lines were obtained from the “Deutsche Sammlung von Mikroorganismen and Zellkulturen GmbH” (DSMZ), Braunschweig, Germany.
(§2) All cell lines were stored according to standard procedures and cultivated at 37° C., 5% CO2- and 95% relative humidity in a CO2 incubator. Granta 519, HBL-2, JeKo-1, Rec-1 and Z-138 were cultivated in RPMI-1640 medium with 10% heat-inactivated FCS and 1% Penicillin/Streptomycin.
(§3) The density of viable cells was determined with BeckmanCoulter ViCell™ Cell Viability Analyzer on the basis of the trypan blue cell exclusion method. The test is based on the principle that viable cells have an intact cell membrane that blocks the uptake of trypan blue whereas dead cells have lost this ability. Therefore viable cells have a transparent cytoplasm whereas dead cells can be identified due to their blue cytoplasm.
(§4) Trypan-blue exclusion tests were used to analyze cell viability.
(§5) These concentrations were determined in pre-experiments on MCL cells • 1. 0.25 μg/ml Fludarabine • 2. 0.25 and 0.5 μg/ml Mitoxantrone
(§6) 1 ml samples were taken at 0 h, 24 h, 48 h, 72 h every day and the number of viable cells was determined. […]

Jeko-1 MCL cells = test: Trypan blue exclusion viability/proliferation test, Jeko-1; assay type: cell-based; details: mono-exposure 1 μg/ml
Procedure: as §2, §3, §4, §5
1 ml samples were taken at 0 h, 24 h, 48 h, 72 h every day and the number of viable cells was determined. The reduction of cell proliferation was used for a fractional product calculation (synergism >0.1; additive effect −0.1<x<0.1; antagonism <−0.1). Experiments were independently performed three times.

[2] = tested on: human Z138 mantle cell lymphoma xenograft; test: Tumor growth inhibition study in vivo, Z138 xenograft; design: species or system SCID beige mice; details: day 36 after tumor cell inoculation; antibodies 1 mg/kg i.v. day 22 and 29; fludarabine 40 mg/kg i.p. day 22-25
Procedure: Antibody buffer included histidine, trehalose and polysorbate 20.
Cells were co-injected with Matrigel.
Experimental study protocol was reviewed and approved by local government. […] Continuous health monitoring was carried out on regular basis. Diet food (Provimi Kliba 3337) and water (acidified pH 2.5-3) were provided ad libitum.
Animals were controlled daily for clinical symptoms and detection of adverse effects.
The corresponding vehicle was administered on the same days.

Granta-519 MCL cells = test: Trypan blue exclusion viability/proliferation test, Granta-519; assay type: cell-based; details: mono-exposure 1 μg/ml
Procedure: as §1, §2, §3, §4, §5, §6

HBL-2 MCL cells = test: Trypan blue exclusion viability/proliferation test, HBL-2; assay type: cell-based; details: mono-exposure 1 μg/ml
Procedure: as §1, §2, §3, §4, §5, §6

| Compound | cell reduction [1] | cell reduction (Rec-1 MCL cells) | cell reduction (Jeko-1 MCL cells) [%] | tumor growth inhibition compared to the control group [2] [%] | cell reduction (Granta-519 MCL cells) | cell reduction (HBL-2 MCL cells) |
| --- | --- | --- | --- | --- | --- | --- |
| O=C1c2c(O)ccc(O)c2C(=O)c2c(NCCNCCO)ccc(NCCNCCO)c21 [Mitoxantrone, 1,4-dihydroxy-5,8-bis[2-(2-hydroxyethylamino)ethylamino]-anthracene-9,10-dione] | 80-95% |  |  |  |  |  |
| B-HH6-B-KV1 GE: afucosylated type II anti-CD20 antibody; humanized B-Ly1 IgG1, VH SEQ ID NO: 7 (B-HH6), VL SEQ ID NO: 20 (B-KV1), glycoengineered |  | 30-45% | 5 | 86 | 65-75% | 20-30% |
